Here are results for 2 molecules from patent US20190119284A1, “ErbB Inhibitors and Uses Thereof” (The Regents of the University of California, priority 2016, published 2019).

Format in all cases: biochemical
Settings in all cases: for inhibition at 1 µM: compound at 1 μM

Test [1] addresses PDGFR-ALPHA (Homo sapiens, UniProt P16234). Kind of test: Nanosyn in vitro kinase profiling: PDGFR-ALPHA. As to the method:
(§1) This was confirmed by in vitro profiling against a panel of kinases, with compound 2 only showing potent inhibition of EGFR and Ab1 (Table 2).
(§2) In vitro Kinome Screen. In vitro profiling of compound 2 at 100 nM was conducted by Nanosyn.

For test [2], the target named is MAP4K4 (Homo sapiens, UniProt O95819). Kind of test: Nanosyn in vitro kinase profiling: MAP4K4. The protocol: as §1, §2
Test [3] has as its target ROCK1 (Homo sapiens, UniProt Q13464). Briefly: Nanosyn in vitro kinase profiling: ROCK1. The protocol: as §1, §2
Test [4] has as its target T1, MST1 (Homo sapiens, UniProt Q13043).
T1 sequence (Q13043 1-487): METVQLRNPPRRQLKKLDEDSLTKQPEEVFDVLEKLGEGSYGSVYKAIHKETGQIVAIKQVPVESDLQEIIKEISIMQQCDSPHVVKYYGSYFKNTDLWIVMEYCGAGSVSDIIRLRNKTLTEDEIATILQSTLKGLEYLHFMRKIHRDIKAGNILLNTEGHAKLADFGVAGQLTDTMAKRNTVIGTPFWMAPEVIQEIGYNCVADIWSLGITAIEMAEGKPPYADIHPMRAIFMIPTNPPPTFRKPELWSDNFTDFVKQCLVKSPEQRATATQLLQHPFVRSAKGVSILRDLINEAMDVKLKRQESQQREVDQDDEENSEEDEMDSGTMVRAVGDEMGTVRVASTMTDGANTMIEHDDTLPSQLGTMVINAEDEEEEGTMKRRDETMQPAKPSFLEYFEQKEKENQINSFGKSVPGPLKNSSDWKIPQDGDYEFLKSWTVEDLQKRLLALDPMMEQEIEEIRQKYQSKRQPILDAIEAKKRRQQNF
Briefly: Nanosyn in vitro kinase profiling: MST1. The protocol: as §1, §2

Test [5] addresses T2, IRAK4 (Homo sapiens, UniProt Q9NWZ3).
T2 sequence (Q9NWZ3 1-460): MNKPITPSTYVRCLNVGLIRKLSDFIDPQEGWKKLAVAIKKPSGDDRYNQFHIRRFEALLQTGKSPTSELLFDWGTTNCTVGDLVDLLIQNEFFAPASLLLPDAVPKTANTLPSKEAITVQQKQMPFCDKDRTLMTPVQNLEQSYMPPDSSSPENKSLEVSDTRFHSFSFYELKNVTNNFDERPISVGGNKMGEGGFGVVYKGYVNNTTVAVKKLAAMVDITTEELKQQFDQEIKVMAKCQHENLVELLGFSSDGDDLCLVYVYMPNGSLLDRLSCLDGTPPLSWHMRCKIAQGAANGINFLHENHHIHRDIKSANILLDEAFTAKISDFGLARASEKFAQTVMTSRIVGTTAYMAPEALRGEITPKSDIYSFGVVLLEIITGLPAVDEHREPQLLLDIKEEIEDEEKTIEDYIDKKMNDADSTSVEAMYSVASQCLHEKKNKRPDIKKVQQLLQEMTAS
Kind of test: Nanosyn in vitro kinase profiling: IRAK4. As to the method: as §1, §2

For test [6], the target named is DAPK1 (Homo sapiens, UniProt P53355). Kind of test: Nanosyn in vitro kinase profiling: DAPK1. As to the method:
as §1, §2

The target in test [7] is SRC (Homo sapiens, UniProt P12931). Kind of test: Nanosyn in vitro kinase profiling: SRC. The protocol: as §1, §2
Test [8] addresses MET (Homo sapiens, UniProt P08581). Briefly: Nanosyn in vitro kinase profiling: MET. As to the method:
as §1, §2

Test [9] addresses T3, FLT-3 (Homo sapiens, UniProt P36888).
T3 sequence (P36888 27-993): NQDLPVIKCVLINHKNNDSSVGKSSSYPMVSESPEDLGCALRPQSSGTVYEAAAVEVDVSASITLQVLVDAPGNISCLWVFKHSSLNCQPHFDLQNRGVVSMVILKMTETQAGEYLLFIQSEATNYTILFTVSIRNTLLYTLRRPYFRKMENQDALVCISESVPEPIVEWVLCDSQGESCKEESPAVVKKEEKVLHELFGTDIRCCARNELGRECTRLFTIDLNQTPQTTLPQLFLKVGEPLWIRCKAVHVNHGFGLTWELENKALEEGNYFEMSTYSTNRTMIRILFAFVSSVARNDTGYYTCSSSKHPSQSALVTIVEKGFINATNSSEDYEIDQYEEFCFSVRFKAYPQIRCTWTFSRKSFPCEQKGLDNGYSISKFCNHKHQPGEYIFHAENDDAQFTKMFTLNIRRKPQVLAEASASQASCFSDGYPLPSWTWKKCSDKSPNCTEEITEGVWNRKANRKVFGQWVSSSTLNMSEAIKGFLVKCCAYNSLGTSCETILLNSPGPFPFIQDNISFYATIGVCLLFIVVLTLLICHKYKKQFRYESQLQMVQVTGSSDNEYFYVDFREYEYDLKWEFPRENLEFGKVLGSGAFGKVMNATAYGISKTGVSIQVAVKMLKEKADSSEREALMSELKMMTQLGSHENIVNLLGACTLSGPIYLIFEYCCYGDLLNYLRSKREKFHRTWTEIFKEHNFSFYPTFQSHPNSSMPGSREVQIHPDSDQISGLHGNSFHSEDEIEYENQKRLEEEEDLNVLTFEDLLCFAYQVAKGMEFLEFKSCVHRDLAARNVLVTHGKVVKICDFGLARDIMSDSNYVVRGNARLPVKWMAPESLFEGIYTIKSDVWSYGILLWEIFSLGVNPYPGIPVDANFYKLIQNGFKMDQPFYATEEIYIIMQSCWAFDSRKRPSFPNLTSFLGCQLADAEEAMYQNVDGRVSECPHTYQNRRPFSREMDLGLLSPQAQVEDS
Kind of test: Nanosyn in vitro kinase profiling: FLT-3. As to the method: as §1, §2

In test [10] the target is AMP-A1B1G1 (Homo sapiens, UniProt Q13131). Kind of test: Nanosyn in vitro kinase profiling: AMP-A1B1G1. The protocol:
as §1, §2

ROCK1, sequence (Q13464 whole entry, species assumed): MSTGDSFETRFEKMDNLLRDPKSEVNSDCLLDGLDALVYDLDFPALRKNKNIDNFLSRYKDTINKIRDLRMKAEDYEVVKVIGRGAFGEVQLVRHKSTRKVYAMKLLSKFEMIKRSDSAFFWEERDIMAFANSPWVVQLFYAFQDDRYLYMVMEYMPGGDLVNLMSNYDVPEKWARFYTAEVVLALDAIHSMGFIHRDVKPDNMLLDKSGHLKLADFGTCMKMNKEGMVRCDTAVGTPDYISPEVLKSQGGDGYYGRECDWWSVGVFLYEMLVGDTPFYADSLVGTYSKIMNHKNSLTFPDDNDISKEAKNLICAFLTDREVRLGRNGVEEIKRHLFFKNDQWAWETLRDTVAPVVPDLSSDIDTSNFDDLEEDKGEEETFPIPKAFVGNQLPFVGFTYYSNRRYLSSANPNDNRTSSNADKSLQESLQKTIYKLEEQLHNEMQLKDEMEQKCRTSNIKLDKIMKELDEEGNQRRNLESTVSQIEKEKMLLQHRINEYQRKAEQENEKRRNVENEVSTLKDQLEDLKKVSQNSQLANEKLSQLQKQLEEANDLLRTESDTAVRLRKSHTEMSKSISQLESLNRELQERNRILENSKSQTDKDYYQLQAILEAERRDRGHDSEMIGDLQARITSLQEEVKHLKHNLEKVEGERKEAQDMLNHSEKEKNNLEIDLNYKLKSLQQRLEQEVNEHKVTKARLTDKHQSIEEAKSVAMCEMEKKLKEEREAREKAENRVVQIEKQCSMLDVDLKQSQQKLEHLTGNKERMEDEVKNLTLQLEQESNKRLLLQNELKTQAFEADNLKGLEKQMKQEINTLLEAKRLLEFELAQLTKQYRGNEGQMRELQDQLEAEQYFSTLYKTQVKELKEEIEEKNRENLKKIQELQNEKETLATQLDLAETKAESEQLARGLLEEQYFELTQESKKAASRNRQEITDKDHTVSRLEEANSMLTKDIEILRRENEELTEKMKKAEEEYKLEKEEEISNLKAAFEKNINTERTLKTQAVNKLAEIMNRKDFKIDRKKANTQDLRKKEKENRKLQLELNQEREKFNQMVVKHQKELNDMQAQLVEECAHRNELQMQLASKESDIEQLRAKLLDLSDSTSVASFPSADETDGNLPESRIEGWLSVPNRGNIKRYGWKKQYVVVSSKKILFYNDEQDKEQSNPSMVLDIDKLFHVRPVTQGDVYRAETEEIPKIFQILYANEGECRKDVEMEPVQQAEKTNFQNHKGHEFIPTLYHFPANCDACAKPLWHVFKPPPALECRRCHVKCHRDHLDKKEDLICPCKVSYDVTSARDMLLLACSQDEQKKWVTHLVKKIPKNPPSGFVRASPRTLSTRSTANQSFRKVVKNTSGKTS
DAPK1, sequence (P53355 whole entry, species assumed): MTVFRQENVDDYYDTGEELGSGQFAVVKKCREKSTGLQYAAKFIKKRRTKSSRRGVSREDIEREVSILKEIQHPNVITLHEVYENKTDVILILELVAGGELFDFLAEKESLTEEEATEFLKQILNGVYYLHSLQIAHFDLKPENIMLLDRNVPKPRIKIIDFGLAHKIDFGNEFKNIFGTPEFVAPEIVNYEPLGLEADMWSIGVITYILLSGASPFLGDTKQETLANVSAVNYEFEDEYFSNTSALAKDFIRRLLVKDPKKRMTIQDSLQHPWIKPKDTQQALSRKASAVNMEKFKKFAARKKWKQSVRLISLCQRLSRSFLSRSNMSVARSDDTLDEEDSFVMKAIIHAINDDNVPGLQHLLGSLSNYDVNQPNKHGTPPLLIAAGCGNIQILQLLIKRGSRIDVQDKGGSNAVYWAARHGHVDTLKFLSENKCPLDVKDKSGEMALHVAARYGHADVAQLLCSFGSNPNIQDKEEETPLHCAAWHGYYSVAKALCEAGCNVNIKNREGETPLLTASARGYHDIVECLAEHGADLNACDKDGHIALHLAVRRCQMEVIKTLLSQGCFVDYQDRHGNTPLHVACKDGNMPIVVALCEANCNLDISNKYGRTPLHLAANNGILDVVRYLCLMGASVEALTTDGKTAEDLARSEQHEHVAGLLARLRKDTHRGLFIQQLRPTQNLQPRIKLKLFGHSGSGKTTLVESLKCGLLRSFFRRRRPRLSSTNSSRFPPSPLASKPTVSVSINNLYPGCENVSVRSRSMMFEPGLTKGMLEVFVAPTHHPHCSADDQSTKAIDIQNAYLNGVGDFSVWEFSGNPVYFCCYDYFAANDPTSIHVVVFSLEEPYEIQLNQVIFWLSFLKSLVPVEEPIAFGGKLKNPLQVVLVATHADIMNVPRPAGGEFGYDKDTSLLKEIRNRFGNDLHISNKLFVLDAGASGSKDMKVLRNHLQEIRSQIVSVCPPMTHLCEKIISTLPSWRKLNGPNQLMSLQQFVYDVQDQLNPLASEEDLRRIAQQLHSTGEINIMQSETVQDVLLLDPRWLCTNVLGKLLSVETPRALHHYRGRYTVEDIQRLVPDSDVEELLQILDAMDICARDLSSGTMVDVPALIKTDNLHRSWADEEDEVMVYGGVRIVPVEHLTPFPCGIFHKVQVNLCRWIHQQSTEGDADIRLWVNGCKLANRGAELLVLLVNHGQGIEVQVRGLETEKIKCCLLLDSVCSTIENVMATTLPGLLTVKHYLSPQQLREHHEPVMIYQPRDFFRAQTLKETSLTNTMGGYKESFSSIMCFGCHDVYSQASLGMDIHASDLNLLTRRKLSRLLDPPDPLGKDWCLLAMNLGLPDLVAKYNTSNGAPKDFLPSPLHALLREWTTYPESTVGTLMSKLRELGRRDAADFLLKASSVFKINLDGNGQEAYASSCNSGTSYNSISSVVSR
AMP-A1B1G1, sequence (Q13131 whole entry): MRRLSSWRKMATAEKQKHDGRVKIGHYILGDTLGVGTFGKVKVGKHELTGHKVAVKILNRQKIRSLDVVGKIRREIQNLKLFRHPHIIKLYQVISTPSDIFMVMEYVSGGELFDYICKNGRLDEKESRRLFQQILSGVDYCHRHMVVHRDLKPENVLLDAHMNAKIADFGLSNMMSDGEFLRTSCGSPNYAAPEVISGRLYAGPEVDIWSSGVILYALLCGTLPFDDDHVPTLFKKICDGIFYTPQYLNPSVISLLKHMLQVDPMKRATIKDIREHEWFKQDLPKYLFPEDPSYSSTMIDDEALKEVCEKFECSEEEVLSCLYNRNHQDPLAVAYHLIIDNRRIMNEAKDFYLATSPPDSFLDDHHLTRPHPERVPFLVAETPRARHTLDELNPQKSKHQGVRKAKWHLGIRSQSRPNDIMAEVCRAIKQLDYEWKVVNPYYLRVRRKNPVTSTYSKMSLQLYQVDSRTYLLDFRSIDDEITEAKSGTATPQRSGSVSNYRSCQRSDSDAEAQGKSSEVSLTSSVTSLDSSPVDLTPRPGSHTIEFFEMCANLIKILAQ
AMP-A1B1G1, sequence (Q9Y478 whole entry partner): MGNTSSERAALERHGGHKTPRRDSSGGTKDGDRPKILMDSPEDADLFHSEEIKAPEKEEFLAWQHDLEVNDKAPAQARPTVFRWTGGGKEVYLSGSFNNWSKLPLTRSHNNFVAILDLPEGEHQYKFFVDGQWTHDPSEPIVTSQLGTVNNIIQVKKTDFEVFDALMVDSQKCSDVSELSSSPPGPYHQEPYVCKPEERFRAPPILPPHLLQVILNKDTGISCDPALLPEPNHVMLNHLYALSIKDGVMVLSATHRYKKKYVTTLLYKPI
AMP-A1B1G1, sequence (P54619 whole entry partner): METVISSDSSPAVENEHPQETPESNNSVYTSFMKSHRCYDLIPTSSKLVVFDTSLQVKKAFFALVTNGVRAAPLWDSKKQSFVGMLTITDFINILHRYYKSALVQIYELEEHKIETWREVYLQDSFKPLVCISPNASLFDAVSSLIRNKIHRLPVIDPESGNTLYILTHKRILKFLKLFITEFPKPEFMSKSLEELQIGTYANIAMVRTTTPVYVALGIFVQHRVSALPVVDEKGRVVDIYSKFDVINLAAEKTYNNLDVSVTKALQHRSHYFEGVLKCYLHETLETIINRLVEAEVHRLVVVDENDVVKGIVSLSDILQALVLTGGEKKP
SRC, sequence (P12931 whole entry): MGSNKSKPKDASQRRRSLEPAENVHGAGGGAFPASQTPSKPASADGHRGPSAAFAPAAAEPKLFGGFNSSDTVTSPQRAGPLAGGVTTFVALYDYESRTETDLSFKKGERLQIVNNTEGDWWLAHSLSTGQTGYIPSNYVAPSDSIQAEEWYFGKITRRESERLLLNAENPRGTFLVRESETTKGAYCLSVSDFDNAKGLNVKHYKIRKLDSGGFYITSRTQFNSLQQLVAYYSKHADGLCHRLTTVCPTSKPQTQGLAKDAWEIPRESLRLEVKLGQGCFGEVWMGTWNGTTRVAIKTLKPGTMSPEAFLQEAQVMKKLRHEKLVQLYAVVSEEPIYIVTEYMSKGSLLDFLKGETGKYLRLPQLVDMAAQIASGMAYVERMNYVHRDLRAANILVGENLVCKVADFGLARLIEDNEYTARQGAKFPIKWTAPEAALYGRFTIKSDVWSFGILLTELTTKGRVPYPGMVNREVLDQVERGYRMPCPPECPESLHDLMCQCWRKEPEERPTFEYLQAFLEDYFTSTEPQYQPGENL

The inhibition is the change of the read-out against control, counted positive when it falls. On to `COc1ccc(-c2ccco2)cc1Nc1ncnc2[nH]nc(-c3ccco3)c12` [compound 2, 3-(furan-2-yl)-N-(5-(furan-2-yl)-2-methoxyphenyl)-1H-pyrazolo[3,4-d]pyrimidin-4-amine], for which the inhibition at 0.1 µM in test [1] (compound at 100 nM) is 11.8%; in [2] (compound at 100 nM) it was 36.5%; in test [3] (compound at 100 nM) it was 0.155%; in test [4] (compound at 100 nM) it was 3.85%; in test [5] (compound at 100 nM) it was 1.47%; in test [6] (compound at 100 nM), -0.52%. Moreover, the inhibition at 0.1 µM was 63.2% in test [7] (compound at 100 nM), 2.04% in test [8] (compound at 100 nM), 60% in test [9] (compound at 100 nM) and 2.69% in test [10] (compound at 100 nM). In addition, the inhibition at 1 µM in test [1] stood at 52.5%; in test [2] it was 78.7%; in test [3] it was 1.16%; in [4], 19.9%; in test [5] it was 1.42%; in test [6], 1.43%. Further, the inhibition at 1 µM in test [7] stood at 88.9%; in [8], 10.1%; in test [9] it was 89.4%; in test [10] it was 12.9%.

Turning to `COc1ccc(-c2ccoc2)cc1Nc1ncnc2[nH]cc(-c3cc[nH]n3)c12` [compound 3, N-(5-(furan-3-yl)-2-methoxyphenyl)-5-(1H-pyrazol-3-yl)-7H-pyrrolo[2,3-d]pyrimidin-4-amine], the inhibition at 1 µM was 66% in [1]; 100% in [2]; 16% in test [3]; 84% in [4]; 34% in test [5]; -1% in test [6]. Moreover, the inhibition at 1 µM was found to be 95% in [7], 16% in test [8], 78% in test [9] and 20% in test [10].
